Activity calls are given as the source filed them. The rule behind the calls is not given here.
Assays:
[1] = target: Epidermal growth factor receptor (Homo sapiens, UniProt P00533, L858R/T790M); test: Inhibition of EGFR L858R/T790M mutant (unknown origin) using Tyr 4 peptide as substrate after 1.5 hrs by FRET based Z'-lyte assay; type: protein assay
NCI-H1975 [2] = test: Antiproliferative activity against human NCI-H1975 cells expressing EGFR L858R/T790M mutant after 72 hrs by MTT assay; conditions: NCI-H1975, 72 h
[3] = target: Epidermal growth factor receptor (Homo sapiens, UniProt P00533, L858R); test: Inhibition of EGFR L858R mutant (unknown origin) using Tyr 4 peptide as substrate after 1.5 hrs by FRET based Z'-lyte assay; type: protein assay
[4] = Antiproliferative activity against human 16HBE cells expressing wild type EGFR after 72 hrs by MTT assay; conditions: 16HBE14o-
A-431 = test: Antiproliferative activity against human A431 cells expressing wild type EGFR after 72 hrs by MTT assay; conditions: A-431, 72 h
[5] = Antiproliferative activity against human HCC827 cells expressing EGFR E746_A750 deletion mutant after 72 hrs by MTT assay; conditions: HCC827, 72 h
[6] = target: T1, Epidermal growth factor receptor (Homo sapiens, UniProt P00533); test: Inhibition of wild type EGFR (unknown origin) using Tyr 4 peptide as substrate after 1.5 hrs by FRET based Z'-lyte assay
A549 = test: Antiproliferative activity against wild type EGFR/k-Ras dependent human A549 cells after 72 hrs by MTT assay; conditions: A549, 72 h
[7] = target: T1, Epidermal growth factor receptor; test: Inhibition of EGFR phosphorylation in human NCI-H1975 cells at 0.01 to 1 uM after 6 hrs by Western blotting analysis; type: cell-based
[8] = target: T1, Epidermal growth factor receptor; test: Inhibition of EGFR phosphorylation in human NCI-H1975 cells assessed as reduction of phosphorylated Erk level at 1 uM after 6 hrs by Western blotting analysis; type: cell-based
[9] = target: T1, Epidermal growth factor receptor; test: Inhibition of EGFR phosphorylation in human NCI-H1975 cells assessed as reduction of phosphorylated Akt level at 1 uM after 6 hrs by Western blotting analysis; type: cell-based
NCI-H1975 [10] = test: Ratio of IC50 for human NCI-H1975 cells expressing EGFR L858R/T790M mutant to IC50 for human 16HBE cells
[11] = Ratio of IC50 for human HCC827 cells expressing EGFR E746_A750 deletion mutant to IC50 for human 16HBE cells
NCI-H1975 [12] = test: Induction of nitric oxide production in human NCI-H1975 cells expressing EGFR L858R/T790M mutant at 100 uM after 72 hrs by Griess assay; type: functional, cell-based
16HBE14o- = test: Induction of nitric oxide production in human 16HBE cells expressing wild type EGFR at 100 uM after 72 hrs by Griess assay; type: functional, cell-based
[13] = target: T1, Epidermal growth factor receptor; test: Inhibition of EGFR phosphorylation in human NCI-H1975 cells after 6 hrs by Western blotting analysis; type: cell-based
NCI-H1975 [14] = test: Antiproliferative activity against human NCI-H1975 cells expressing EGFR L858R/T790M mutant at 1 to 20 uM after 24 hrs by MTT assay in presence of hemoglobin; type: functional, cell-based

Chain of Epidermal growth factor receptor (Homo sapiens, UniProt P00533, L858R) (P00533 25-1210 L858R limits assumed): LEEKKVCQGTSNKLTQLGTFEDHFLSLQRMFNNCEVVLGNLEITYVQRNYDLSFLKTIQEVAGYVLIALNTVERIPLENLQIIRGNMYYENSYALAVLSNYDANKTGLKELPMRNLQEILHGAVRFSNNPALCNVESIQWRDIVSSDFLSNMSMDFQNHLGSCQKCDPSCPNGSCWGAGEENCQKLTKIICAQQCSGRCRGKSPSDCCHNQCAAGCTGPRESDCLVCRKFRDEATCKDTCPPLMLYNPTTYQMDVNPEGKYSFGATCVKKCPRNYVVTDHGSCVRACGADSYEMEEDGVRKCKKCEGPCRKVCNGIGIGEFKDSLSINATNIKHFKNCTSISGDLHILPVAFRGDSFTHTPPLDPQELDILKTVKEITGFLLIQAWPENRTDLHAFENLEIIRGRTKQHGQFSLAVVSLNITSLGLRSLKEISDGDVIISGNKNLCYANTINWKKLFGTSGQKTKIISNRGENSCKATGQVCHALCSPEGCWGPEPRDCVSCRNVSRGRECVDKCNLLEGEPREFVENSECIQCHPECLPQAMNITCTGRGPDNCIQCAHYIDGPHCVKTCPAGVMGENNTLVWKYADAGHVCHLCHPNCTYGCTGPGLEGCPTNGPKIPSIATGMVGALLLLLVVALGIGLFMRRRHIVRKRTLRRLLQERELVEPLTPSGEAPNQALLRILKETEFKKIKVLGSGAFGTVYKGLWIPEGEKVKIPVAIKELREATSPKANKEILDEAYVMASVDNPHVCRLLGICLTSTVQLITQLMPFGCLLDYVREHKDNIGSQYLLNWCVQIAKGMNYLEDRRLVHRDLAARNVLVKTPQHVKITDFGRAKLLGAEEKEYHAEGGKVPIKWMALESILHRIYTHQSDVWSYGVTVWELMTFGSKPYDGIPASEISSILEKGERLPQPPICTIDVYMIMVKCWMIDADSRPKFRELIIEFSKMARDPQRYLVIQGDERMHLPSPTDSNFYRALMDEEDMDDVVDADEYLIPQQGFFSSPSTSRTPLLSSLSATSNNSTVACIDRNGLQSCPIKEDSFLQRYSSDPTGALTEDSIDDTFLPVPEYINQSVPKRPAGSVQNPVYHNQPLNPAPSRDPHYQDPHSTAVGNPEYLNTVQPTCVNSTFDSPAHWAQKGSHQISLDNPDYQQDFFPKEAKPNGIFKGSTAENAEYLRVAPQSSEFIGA
T1 sequence (P00533 whole entry): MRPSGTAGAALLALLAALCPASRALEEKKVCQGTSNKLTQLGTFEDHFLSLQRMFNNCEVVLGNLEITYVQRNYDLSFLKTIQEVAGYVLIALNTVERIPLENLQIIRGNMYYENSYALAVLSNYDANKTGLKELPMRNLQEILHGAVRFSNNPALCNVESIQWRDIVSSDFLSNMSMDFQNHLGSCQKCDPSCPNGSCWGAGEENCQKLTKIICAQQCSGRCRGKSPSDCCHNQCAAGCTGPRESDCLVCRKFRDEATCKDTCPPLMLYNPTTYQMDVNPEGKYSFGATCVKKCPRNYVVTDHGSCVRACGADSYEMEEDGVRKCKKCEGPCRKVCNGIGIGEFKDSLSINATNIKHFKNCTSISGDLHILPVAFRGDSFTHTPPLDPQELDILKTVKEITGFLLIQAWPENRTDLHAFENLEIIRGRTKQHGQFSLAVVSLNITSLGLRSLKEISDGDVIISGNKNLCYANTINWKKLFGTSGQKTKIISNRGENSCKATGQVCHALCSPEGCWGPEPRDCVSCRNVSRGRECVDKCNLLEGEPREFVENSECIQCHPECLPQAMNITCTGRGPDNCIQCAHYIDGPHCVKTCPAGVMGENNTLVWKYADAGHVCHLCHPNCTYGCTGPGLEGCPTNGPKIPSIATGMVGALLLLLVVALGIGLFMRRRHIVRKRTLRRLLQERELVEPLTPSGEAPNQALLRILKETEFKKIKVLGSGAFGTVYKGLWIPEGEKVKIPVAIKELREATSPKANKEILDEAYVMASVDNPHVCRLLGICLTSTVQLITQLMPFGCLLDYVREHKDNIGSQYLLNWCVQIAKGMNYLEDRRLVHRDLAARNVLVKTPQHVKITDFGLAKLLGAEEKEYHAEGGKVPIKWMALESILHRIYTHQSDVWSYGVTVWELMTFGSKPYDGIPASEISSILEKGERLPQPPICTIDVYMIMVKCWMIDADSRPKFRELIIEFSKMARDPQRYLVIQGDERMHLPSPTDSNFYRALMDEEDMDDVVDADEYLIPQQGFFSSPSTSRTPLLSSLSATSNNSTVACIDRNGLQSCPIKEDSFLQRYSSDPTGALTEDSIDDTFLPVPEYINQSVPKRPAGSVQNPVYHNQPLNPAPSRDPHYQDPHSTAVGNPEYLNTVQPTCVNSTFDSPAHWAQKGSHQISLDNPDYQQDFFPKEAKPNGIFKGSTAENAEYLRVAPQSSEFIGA
Chain of Epidermal growth factor receptor (Homo sapiens, UniProt P00533, L858R/T790M) (P00533 25-1210 T790M/L858R limits assumed): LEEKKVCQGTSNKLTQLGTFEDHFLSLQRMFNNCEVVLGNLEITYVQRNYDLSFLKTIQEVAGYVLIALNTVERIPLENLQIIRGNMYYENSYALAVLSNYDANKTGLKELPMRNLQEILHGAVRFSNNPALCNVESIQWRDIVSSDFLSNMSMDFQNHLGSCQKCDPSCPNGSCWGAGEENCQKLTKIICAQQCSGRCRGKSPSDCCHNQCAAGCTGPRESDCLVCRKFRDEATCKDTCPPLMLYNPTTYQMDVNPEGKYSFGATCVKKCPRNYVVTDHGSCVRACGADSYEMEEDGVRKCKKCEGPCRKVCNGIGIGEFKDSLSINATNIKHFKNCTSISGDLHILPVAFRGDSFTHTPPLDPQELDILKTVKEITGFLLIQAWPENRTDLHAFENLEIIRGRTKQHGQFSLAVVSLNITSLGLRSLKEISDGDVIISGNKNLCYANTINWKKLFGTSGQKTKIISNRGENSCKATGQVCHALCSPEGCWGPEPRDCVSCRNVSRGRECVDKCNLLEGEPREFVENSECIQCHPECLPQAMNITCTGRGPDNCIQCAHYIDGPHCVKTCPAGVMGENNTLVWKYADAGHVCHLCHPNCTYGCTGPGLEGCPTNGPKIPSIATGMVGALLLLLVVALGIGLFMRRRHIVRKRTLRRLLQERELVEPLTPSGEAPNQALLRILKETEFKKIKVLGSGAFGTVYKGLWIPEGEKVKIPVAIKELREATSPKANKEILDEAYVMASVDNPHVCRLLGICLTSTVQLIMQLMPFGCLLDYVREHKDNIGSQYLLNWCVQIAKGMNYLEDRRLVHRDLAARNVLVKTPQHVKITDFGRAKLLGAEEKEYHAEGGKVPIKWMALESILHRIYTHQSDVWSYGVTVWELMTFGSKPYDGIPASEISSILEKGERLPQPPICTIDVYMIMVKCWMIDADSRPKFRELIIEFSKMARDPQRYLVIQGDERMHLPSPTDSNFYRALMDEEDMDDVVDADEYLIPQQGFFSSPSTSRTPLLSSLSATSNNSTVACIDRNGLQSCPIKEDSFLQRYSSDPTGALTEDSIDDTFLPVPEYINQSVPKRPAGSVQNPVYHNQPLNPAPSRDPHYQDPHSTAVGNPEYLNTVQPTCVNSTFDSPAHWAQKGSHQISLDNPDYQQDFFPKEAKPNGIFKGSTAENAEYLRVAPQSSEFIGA

IC50 [1] [µM]	IC50 (NCI-H1975 [2]) [µM]	IC50 [3] [µM]	IC50 (A-431) [µM]	IC50 [6] [µM]	IC50 (A549) [µM]	inhibition [7]	inhibition [8]	inhibition [9]	inhibition [13]	SMILES	IC50 [4] [µM]	IC50 [5] [µM]	Ratio IC50 (NCI-H1975 [10])	Ratio IC50 [11]	Activity (NCI-H1975 [12])	Activity (16HBE14o-)	Activity (NCI-H1975 [14])
0.14	0.221	1.53	2.2	1.09	3.66					COc1cc(N2CCN(C)CC2)ccc1Nc1ncc(Cl)c(Oc2ccc(COc3no[n+]([O-])c3S(=O)(=O)c3ccccc3)cc2)n1	2.3	0.863					
						Active	Active	Active		C=CC(=O)Nc1cccc(Oc2nc(Nc3ccc(N4CCN(C)CC4)cc3OC)ncc2Cl)c1							
0.019	0.052	0.15	1.36	0.13	4.19					COc1cc(N2CCN(C)CC2)ccc1Nc1ncc(Cl)c(Oc2cccc(COc3no[n+]([O-])c3S(=O)(=O)c3ccccc3)c2)n1	2.21	0.063	35	35			
0.96	0.372	5.36	0.479	2.94	3.75					COc1cc(N2CCN(C)CC2)ccc1Nc1ncc(Cl)c(Oc2ccc(CCOc3no[n+]([O-])c3S(=O)(=O)c3ccccc3)cc2)n1	2.42	1.93			Active		
										COc1cc2ncnc(Nc3ccc(F)c(Cl)c3)c2cc1OCCCN1CCOCC1					Active	Active	
0.41	0.154	> 10	4.66	> 10	3.9					C=CC(=O)N1CCN(c2ccc(Nc3ncc(Cl)c(Oc4ccc(COc5no[n+]([O-])c5S(=O)(=O)c5ccccc5)cc4)n3)c(OC)c2)CC1	3.37	4.9					
0.78	0.315	> 10	0.551	2.28	2.83					COc1cc(N2CCN(C)CC2)ccc1Nc1ncc(Cl)c(Oc2ccc(CCCOc3no[n+]([O-])c3S(=O)(=O)c3ccccc3)cc2)n1	3.52	4.82			Active		
0.25	0.148	3.22	0.357	3.15	4.25					COc1cc(N2CCC(O)CC2)ccc1Nc1ncc(Cl)c(Oc2ccc(COc3no[n+]([O-])c3S(=O)(=O)c3ccccc3)cc2)n1	2.19	0.095					
0.045	0.055	0.37	0.348	0.35	1.72	Active	Active	Active	Dose-dependent effect	C=CC(=O)N1CCN(c2ccc(Nc3ncc(Cl)c(Oc4cccc(COc5no[n+]([O-])c5S(=O)(=O)c5ccccc5)c4)n3)c(OC)c2)CC1	1.93	0.022	35	35	Active	Active	Active
0.068	0.068	0.49	1.2	0.24	3.91					COc1cc(N2CCC(O)CC2)ccc1Nc1ncc(Cl)c(Oc2cccc(COc3no[n+]([O-])c3S(=O)(=O)c3ccccc3)c2)n1	3.25	0.036	35	35	Active	Active	

Reference: ChEMBL document CHEMBL2407010, “Nitric oxide donating anilinopyrimidines: synthesis and biological evaluation as EGFR inhibitors” (Eur J Med Chem, 2013)
